According to ChEMBL document CHEMBL1138438, “Structural-activity relationship study of highly-functionalized imidazolines as potent inhibitors of nuclear transcription factor-kappaB mediated IL-6 production” (Bioorg Med Chem, 2009):

Legend:
HeLa [1] = assay: Effect on cell cycle arrest in TNF-alpha-stimulated human HeLa cells transfected with NFkappaB-Luc assessed as total background cell aggregate and debris level at 1 uM after 8 hrs by using propidium iodide staining by FACS analysis; format: functional
HeLa [2] = assay: Cell cycle arrest in TNF-alpha-stimulated human HeLa cells transfected with NFkappaB-Luc assessed as accumulation at diploid G2 phase at 0.5 uM after 8 hrs by using propidium iodide staining by FACS analysis; format: functional
HeLa [3] = assay: Cell cycle arrest in TNF-alpha-stimulated human HeLa cells transfected with NFkappaB-Luc assessed as accumulation at G2/G1 phase at 0.5 uM after 8 hrs by using propidium iodide staining by FACS analysis; format: functional
HeLa [4] = assay: Effect on cell cycle arrest in TNF-alpha-stimulated human HeLa cells transfected with NFkappaB-Luc assessed as cell debris level at 0.5 uM after 8 hrs by using propidium iodide staining by FACS analysis; format: functional
HeLa [5] = assay: Cell cycle arrest in TNF-alpha-stimulated human HeLa cells transfected with NFkappaB-Luc assessed as accumulation at diploid G2 phase at 0.1 uM after 8 hrs by using propidium iodide staining by FACS analysis; format: functional
HeLa [6] = assay: Cell cycle arrest in TNF-alpha-stimulated human HeLa cells transfected with NFkappaB-Luc assessed as accumulation at G2/G1 phase at 0.1 uM after 8 hrs by using propidium iodide staining by FACS analysis; format: functional
HeLa [7] = assay: Effect on cell cycle arrest in TNF-alpha-stimulated human HeLa cells transfected with NFkappaB-Luc assessed as cell debris level at 0.1 uM after 8 hrs by using propidium iodide staining by FACS analysis; format: functional
HeLa [8] = assay: Effect on cell cycle arrest in TNF-alpha-stimulated human HeLa cells transfected with NFkappaB-Luc assessed as cell aggregate level at 0.1 uM after 8 hrs by using propidium iodide staining by FACS analysis; format: functional
HeLa [9] = assay: Cell cycle arrest in TNF-alpha-stimulated human HeLa cells transfected with NFkappaB-Luc assessed as accumulation at diploid S phase at 0.05 uM after 8 hrs by using propidium iodide staining by FACS analysis; format: functional
HeLa [10] = assay: Cell cycle arrest in TNF-alpha-stimulated human HeLa cells transfected with NFkappaB-Luc assessed as accumulation at G2/G1 phase at 0.05 uM after 8 hrs by using propidium iodide staining by FACS analysis; format: functional
[11] = Cytotoxicity against human whole blood lymphocytes assessed as survival cell count in millions at 20 uM after 24 hrs by trypan blue staining-based hemocytometry
[12] = Cytotoxicity against IL-1-beta-stimulated human whole blood lymphocytes assessed as survival cell count in millions at 20 uM after 24 hrs by trypan blue staining-based hemocytometry
[13] = Cytotoxicity against IL-1-beta-stimulated human whole blood lymphocytes assessed as survival cell count in millions at 10 uM after 24 hrs by trypan blue staining-based hemocytometry
[14] = Cytotoxicity against IL-1-beta-stimulated human whole blood lymphocytes assessed as survival cell count in millions at 1 uM after 24 hrs by trypan blue staining-based hemocytometry
[15] = Cytotoxicity against human 184B5 cells after 24 hrs by MTS assay; format: cell-based
HeLa [16] = assay: Cell cycle arrest in human HeLa cells transfected with NFkappaB-Luc assessed as accumulation at total S phase at 20 uM after 8 hrs by using propidium iodide staining by FACS analysis; format: functional
HeLa [17] = assay: Effect on cell cycle arrest in human HeLa cells transfected with NFkappaB-Luc assessed as total background cell aggregate and debris level at 20 uM after 8 hrs by using propidium iodide staining by FACS analysis; format: functional
HeLa [18] = assay: Cell cycle arrest in TNF-alpha-stimulated human HeLa cells transfected with NFkappaB-Luc assessed as accumulation at diploid S phase at 20 uM after 8 hrs by using propidium iodide staining by FACS analysis; format: functional
HeLa [19] = assay: Cell cycle arrest in TNF-alpha-stimulated human HeLa cells transfected with NFkappaB-Luc assessed as accumulation at total S phase at 20 uM after 8 hrs by using propidium iodide staining by FACS analysis; format: functional
HeLa [20] = assay: Cell cycle arrest in TNF-alpha-stimulated human HeLa cells transfected with NFkappaB-Luc assessed as accumulation at diploid S phase at 10 uM after 8 hrs by using propidium iodide staining by FACS analysis; format: functional
HeLa [21] = assay: Cell cycle arrest in TNF-alpha-stimulated human HeLa cells transfected with NFkappaB-Luc assessed as accumulation at total S phase at 10 uM after 8 hrs by using propidium iodide staining by FACS analysis; format: functional
HeLa [22] = assay: Cell cycle arrest in TNF-alpha-stimulated human HeLa cells transfected with NFkappaB-Luc assessed as accumulation at diploid stage at 5 uM after 8 hrs by using propidium iodide staining by FACS analysis; format: functional

`CCOC(=O)[C@]1(c2ccccc2)N=C(c2ccccc2)N(Cc2ccccc2)[C@@H]1c1ccccc1` (racemic) showed an Activity (HeLa [1]) of 1.87%, an Activity (HeLa [2]) of 13.4% and an Activity (HeLa [3]) of 1.91%. It also gave an Activity (HeLa [4]) of 3.68%, an Activity (HeLa [5]) of 14.03% and an Activity (HeLa [6]) of 1.92%. It also gave an Activity (HeLa [7]) of 2%, an Activity (HeLa [8]) of 0% and an Activity (HeLa [9]) of 22.8%. For the same compound, the Activity (HeLa [10]) was 1.91%, the Activity [11] was 1.02 mL⁻¹ and the Activity [12] was 0.98 mL⁻¹. The Activity [13] was 0.92 mL⁻¹, the Activity [14] was 1.18 mL⁻¹ and the CC50 at 24 h [15] was over 10 µM. The Activity (HeLa [16]) was 21.48%, the Activity (HeLa [17]) was 3.86% and the Activity (HeLa [18]) was 19.29%. The Activity (HeLa [19]) was 19.29%, the Activity (HeLa [20]) was 16.8% and the Activity (HeLa [21]) was 16.8%. It also gave an Activity (HeLa [22]) of 100%.
